Consider 25 compounds from article PMC9182104 (Molecules, 2022).

“And” between values parts separate entries of the source, which are not always exact repeats. Equal entries are not always repeated. Where two headings read alike, the source gives them in different places.

The target in one data set is PDE5A (Homo sapiens, UniProt O76074). The experiment in a line: Enzymatic assay of PDE5A (3H-cGMP substrate). The class given is biochemical. Particulars: for inhibition at 0.1 µM / inhibition at 0.5 µM: 0.25 h; for IC50: PDE5, mean ± SD of three independent experiments.
Data set [1] is described as follows: Rat liver microsomal stability. The class given is in vitro ADME. Particulars: rat liver microsomes, compound 0.5 μM; read-out: T1/2 in RLM. (In general: Microsomes from liver hold many membrane-bound enzymes, among them those of drug oxidation.)
In data set [2] the test system is fibrosis markers α-SMA and FN. The arrangement: method as in earlier work. The conditions noted are these: rat, bleomycin-induced pulmonary fibrosis; cited from earlier work.
For data set [3] the following is noted: cited from earlier work.
Setting [4] is: PDE5, compound at 0.1 μM, read-out: Inhibition Ratio (%) 0.1 μM.
The mark [5] stands for this setting: PDE5, compound at 0.5 μM, read-out: Inhibition Ratio (%) 0.5 μM.

As a reminder, the IC50 is the concentration that inhibits the measured activity by half. A low value points to higher potency. In the case of `OCCN(CCO)c1nc(N2CCOCC2)c2nc(N(CCO)CCO)nc(N3CCOCC3)c2n1` [4a, 2,2′,2″,2‴-((4,8-dimorpholinopyrimido[5,4-d]pyrimidine-2,6-diyl)bis(azanetriyl))tetrakis(ethan-1-ol)], at PDE5A (setting [4]), the inhibition at 0.1 µM amounted to 0%. For the same compound, on PDE5A (setting [5]), the inhibition at 0.5 µM turned out to be 40%. This compound came in with an IC50 on PDE5A of more than 500 nM.

With `OCCN(CCO)c1nc(N2CCSCC2)c2nc(N(CCO)CCO)nc(N3CCSCC3)c2n1` [4b, 2,2′,2″,2‴-((4,8-dithiomorpholinopyrimido[5,4-d]pyrimidine-2,6-diyl)bis(azanetriyl))tetrakis(ethan-1-ol)], the half-life at 0.5 μM in data set [1] stood at 7 min. Moreover, on PDE5A (setting [4]), the inhibition at 0.1 µM is 53%. In addition, the inhibition at 0.5 µM at PDE5A (setting [5]) was 75%. Moreover, on PDE5A, the IC50 was 64 nM and 113 nM.

As for `OCCN(CCO)c1nc(N2CCC(F)CC2)c2nc(N(CCO)CCO)nc(N3CCC(F)CC3)c2n1` [4c, 2,2′,2″,2‴-((4,8-bis(4-fluoropiperidin-1-yl)pyrimido[5,4-d]pyrimidine-2,6-diyl)bis(azanetriyl))tetrakis(ethan-1-ol)], the half-life at 0.5 μM in data set [1] was determined as 44 min. In addition, the inhibition at 0.1 µM on PDE5A (setting [4]) was found to be 31%. The inhibition at 0.5 µM on PDE5A (setting [5]) was found to be 62%. The compound also yielded an IC50 on PDE5A of 343 ± 18 nM.

Regarding `OCCN(CCO)c1nc(N2CCC(F)(F)CC2)c2nc(N(CCO)CCO)nc(N3CCC(F)(F)CC3)c2n1` [4d, 2,2′,2″,2‴-((4,8-bis(4,4-difluoropiperidin-1-yl)pyrimido[5,4-d]pyrimidine-2,6-diyl)bis(azanetriyl))tetrakis(ethan-1-ol)], the half-life at 0.5 μM in data set [1] was determined as 19 min. In addition, on PDE5A (setting [4]), the inhibition at 0.1 µM was 41%. Further, on PDE5A (setting [5]), the inhibition at 0.5 µM came out at 72%. The concentration for half-maximal inhibition (IC50) against PDE5A came out at 362 ± 81 nM.

As for `OCCN(CCO)c1nc(N2CCCC2)c2nc(N(CCO)CCO)nc(N3CCCC3)c2n1` [4e, 2,2′,2″,2‴-((4,8-di(pyrrolidin-1-yl)pyrimido[5,4-d]pyrimidine-2,6-diyl)bis(azanetriyl))tetrakis(ethan-1-ol)], the inhibition at 0.1 µM on PDE5A (setting [4]) came to 7%. Moreover, at PDE5A (setting [5]), the inhibition at 0.5 µM was less than 50%.

In the case of `CC1CCCN1c1nc(N(CCO)CCO)nc2c(N3CCCC3C)nc(N(CCO)CCO)nc12` (stereo not shown) [4f, 2,2′,2″,2‴-((4,8-bis(2-methylpyrrolidin-1-yl)pyrimido[5,4-d]pyrimidine-2,6-diyl)bis(azanetriyl))tetrakis(ethan-1-ol)], the inhibition at 0.1 µM on PDE5A (setting [4]) was determined as 14%. For the same compound, at PDE5A (setting [5]), the inhibition at 0.5 µM was found to be 60%. Further, 478 ± 3 nM corresponded to half-maximal inhibition against PDE5A (IC50).

Consider `OCCN(CCO)c1nc(N2CCSC2)c2nc(N(CCO)CCO)nc(N3CCSC3)c2n1` [4g, 2,2′,2″,2‴-((4,8-di(thiazolidin-3-yl)pyrimido[5,4-d]pyrimidine-2,6-diyl)bis(azanetriyl))tetrakis(ethan-1-ol)], for which the half-life at 0.5 μM in data set [1] was determined as 5 min. Further, the inhibition at 0.1 µM on PDE5A (setting [4]) stood at 60%. In addition, the inhibition at 0.5 µM at PDE5A (setting [5]) was determined as 93%. On PDE5A, the half-maximal inhibitory concentration (IC50) is 113 nM and 64 nM.

Consider `OCCN(CCO)c1nc(N2CCC(F)(F)C2)c2nc(N(CCO)CCO)nc(N3CCC(F)(F)C3)c2n1` [4i, 2,2′,2″,2‴-((4,8-bis(3,3-difluoropyrrolidin-1-yl)pyrimido[5,4-d]pyrimidine-2,6-diyl)bis(azanetriyl))tetrakis(ethan-1-ol)], for which the inhibition at 0.1 µM at PDE5A (setting [4]) worked out at 24%. In addition, the inhibition at 0.5 µM on PDE5A (setting [5]) turned out to be 61%. In addition, at PDE5A, the IC50 is 353 ± 57 nM.

As for `OC1CCN(c2nc(N3CCSC3)c3nc(N4CCC(O)CC4)nc(N4CCSC4)c3n2)CC1` [5a, 1,1′-(4,8-di(thiazolidin-3-yl)pyrimido[5,4-d]pyrimidine-2,6-diyl)bis(piperidin-4-ol)], the inhibition at 0.1 µM at PDE5A (setting [4]) came to 29%. For the same compound, the inhibition at 0.5 µM on PDE5A (setting [5]) turned out to be 32%.

For `OCC1CCCN(c2nc(N3CCSC3)c3nc(N4CCCC(CO)C4)nc(N4CCSC4)c3n2)C1` (stereo not shown) [5b, ((4,8-di(thiazolidin-3-yl)pyrimido[5,4-d]pyrimidine-2,6-diyl)bis(piperidine-1,3-diyl))dimethanol], the inhibition at 0.1 µM on PDE5A (setting [4]) came to 52%. Besides, the inhibition at 0.5 µM on PDE5A (setting [5]) was determined as 79%. Besides, at PDE5A, the midpoint of inhibition, the IC50, lay at 167 ± 41 nM.

Regarding `OC1CCCN(c2nc(N3CCC(F)CC3)c3nc(N4CCCC(O)C4)nc(N4CCC(F)CC4)c3n2)C1` (stereo not shown) [6a, 1,1′-(4,8-bis(4-fluoropiperidin-1-yl)pyrimido[5,4-d]pyrimidine-2,6-diyl)bis(piperidin-3-ol)], the inhibition at 0.1 µM at PDE5A (setting [4]) stood at 7%. Besides, on PDE5A (setting [5]), the inhibition at 0.5 µM came out at 48%.

As to `OCC1CCCN(c2nc(N3CCC(F)CC3)c3nc(N4CCCC(CO)C4)nc(N4CCC(F)CC4)c3n2)C1` (stereo not shown) [6b, ((4,8-bis(4-fluoropiperidin-1-yl)pyrimido[5,4-d]pyrimidine-2,6-diyl)bis(piperidine-1,3-diyl))dimethanol], the inhibition at 0.1 µM at PDE5A (setting [4]) was 0%. Besides, the inhibition at 0.5 µM on PDE5A (setting [5]) was 7%.

Take `OC1CCN(c2nc(N3CCC(F)CC3)c3nc(N4CCC(O)C4)nc(N4CCC(F)CC4)c3n2)C1` (stereo not shown) [6c, 1,1′-(4,8-bis(4-fluoropiperidin-1-yl)pyrimido[5,4-d]pyrimidine-2,6-diyl)bis(pyrrolidin-3-ol)]: the inhibition at 0.1 µM on PDE5A (setting [4]) was 5%. At PDE5A (setting [5]), the inhibition at 0.5 µM worked out at 20%.

Consider `OCCN(CCO)c1nc(N2CCSC2)c2nc(N(CCO)CCO)nc(N3CCSCC3)c2n1` [9a, 2,2′,2″,2‴-((4-(thiazolidin-3-yl)-8-thiomorpholinopyrimido[5,4-d]pyrimidine-2,6-diyl)bis(azanetriyl))tetrakis(ethan-1-ol)], for which, in data set [1], the half-life at 0.5 μM was 4 min. In addition, the inhibition at 0.1 µM on PDE5A (setting [4]) was found to be 45%. Also, at PDE5A (setting [5]), the inhibition at 0.5 µM came out at 91%. At PDE5A, this compound showed an IC50 of 100 ± 1 nM.

For the compound `OCCN(CCO)c1nc(N2CC[C@H](F)C2)c2nc(N(CCO)CCO)nc(N3CCSC3)c2n1` [9b, (S)-2,2′,2″,2‴-((4-(3-fluoropyrrolidin-1-yl)-8-(thiazolidin-3-yl)pyrimido[5,4-d]pyrimidine-2,6-diyl)bis(azanetriyl))tetrakis(ethan-1-ol)], the half-life at 0.5 μM in data set [1] came out at 10 min. Moreover, the inhibition at 0.1 µM at PDE5A (setting [4]) was 33%. Besides, at PDE5A (setting [5]), the inhibition at 0.5 µM came out at 81%. For the same compound, on PDE5A, half-maximal inhibition (IC50) was put at 94 ± 9 nM.

Take `C[C@H]1CCCN1c1nc(N(CCO)CCO)nc2c(N3CCC[C@@H]3C)nc(N(CCO)CCO)nc12` [(R)-4f, 2,2′,2″,2‴-((4,8-bis((S)-2-methylpyrrolidin-1-yl)pyrimido[5,4-d]pyrimidine-2,6-diyl)bis(azanetriyl))tetrakis(ethan-1-ol)]: the “Inhibition Ratio (%) 0.1 μM” value at PDE5A (PDE5, compound at 0.1 μM) is on record as 27%. The “Inhibition Ratio (%) 0.5 μM” value at PDE5A (PDE5, compound at 0.5 μM) is reported as 44%.

As for `OCCN(CCO)c1nc(N2CC[C@@H](F)C2)c2nc(N(CCO)CCO)nc(N3CC[C@@H](F)C3)c2n1` [(R)-4h, 2,2′,2″,2‴-((4,8-bis((R)-3-fluoropyrrolidin-1-yl)pyrimido[5,4-d]pyrimidine-2,6-diyl)bis(azanetriyl))tetrakis(ethan-1-ol)], the inhibition at 0.1 µM at PDE5A (setting [4]) was 27%. Further, at PDE5A (setting [5]), the inhibition at 0.5 µM came out at 44%.

As for `OC[C@@H]1CCCN(c2nc(N3CCSC3)c3nc(N4CCC[C@@H](CO)C4)nc(N4CCSC4)c3n2)C1` [(R)-5b, ((3R,3′R)-(4,8-di(thiazolidin-3-yl)pyrimido[5,4-d]pyrimidine-2,6-diyl)bis(piperidine-1,3-diyl))dimethanol], the concentration for half-maximal inhibition (IC50) at PDE5A is 109 ± 20 nM.

For the compound `O[C@@H]1CCN(c2nc(N3CCSC3)c3nc(N4CC[C@@H](O)C4)nc(N4CCSC4)c3n2)C1` [(R)-5c, (3R,3′R)-1,1′-(4,8-di(thiazolidin-3-yl)pyrimido[5,4-d]pyrimidine-2,6-diyl)bis(pyrrolidin-3-ol)], at PDE5A (setting [4]), the inhibition at 0.1 µM worked out at 45%. Also, the inhibition at 0.5 µM at PDE5A (setting [5]) worked out at 74%. On PDE5A, half-maximal inhibition (IC50) required 198 ± 45 nM.

Consider `O[C@@H]1CCCN(c2nc(N3CCC(F)CC3)c3nc(N4CCC[C@@H](O)C4)nc(N4CCC(F)CC4)c3n2)C1` [(R)-6a, (3R,3′R)-1,1′-(4,8-bis(4-fluoropiperidin-1-yl)pyrimido[5,4-d]pyrimidine-2,6-diyl)bis(piperidin-3-ol)], for which the inhibition at 0.1 µM at PDE5A (setting [4]) turned out to be 8%. In addition, the inhibition at 0.5 µM at PDE5A (setting [5]) was 36%.

As to `C[C@H]1CCCN1c1nc(N(CCO)CCO)nc2c(N3CCC[C@@H]3C)nc(N(CCO)CCO)nc12` [(S)-4f, 2,2′,2″,2‴-((4,8-bis((S)-2-methylpyrrolidin-1-yl)pyrimido[5,4-d]pyrimidine-2,6-diyl)bis(azanetriyl))tetrakis(ethan-1-ol)], the inhibition at 0.1 µM on PDE5A (setting [4]) was found to be 16%. Also, the inhibition at 0.5 µM at PDE5A (setting [5]) amounted to 42%.

On to `OCCN(CCO)c1nc(N2CC[C@H](F)C2)c2nc(N(CCO)CCO)nc(N3CC[C@H](F)C3)c2n1` [(S)-4h, 2,2′,2″,2‴-((4,8-bis((S)-3-fluoropyrrolidin-1-yl)pyrimido[5,4-d]pyrimidine-2,6-diyl)bis(azanetriyl))tetrakis(ethan-1-ol)], for which the half-life at 0.5 μM in data set [1] amounted to 67 min. The inhibition at 0.1 µM on PDE5A (setting [4]) came to 34%. The inhibition at 0.5 µM on PDE5A (setting [5]) worked out at 55%. The same compound came in with an IC50 against PDE5A of 332 ± 56 nM.

Regarding `OC[C@H]1CCCN(c2nc(N3CCSC3)c3nc(N4CCC[C@H](CO)C4)nc(N4CCSC4)c3n2)C1` [(S)-5b, ((3S,3′S)-(4,8-di(thiazolidin-3-yl)pyrimido[5,4-d]pyrimidine-2,6-diyl)bis(piperidine-1,3-diyl))dimethanol], the inhibition at 0.1 µM on PDE5A (setting [4]) was determined as 13%. The inhibition at 0.5 µM on PDE5A (setting [5]) stood at 34%.

In the case of `O[C@H]1CCN(c2nc(N3CCSC3)c3nc(N4CC[C@H](O)C4)nc(N4CCSC4)c3n2)C1` [(S)-5c, (3S,3′S)-1,1′-(4,8-di(thiazolidin-3-yl)pyrimido[5,4-d]pyrimidine-2,6-diyl)bis(pyrrolidin-3-ol)], the inhibition at 0.1 µM on PDE5A (setting [4]) is 36%. In addition, the inhibition at 0.5 µM at PDE5A (setting [5]) came to 49%.

In the case of `OCCN(CCO)c1nc(N2CCCCC2)c2nc(N(CCO)CCO)nc(N3CCCCC3)c2n1` [DIP, Dipyridamole, reference compound], the “levels of fibrosis markers α-SMA and FN” value in data set [2] is on record as “significantly decreased”. The solubility in water result in data set [3] is on record as “practically insoluble in water”. The inhibition at 0.1 µM at PDE5A (read-out: Inhibition Ratio (%) 0.1 μM, PDE5, compound at 0.1 μM) was determined as 17%. In addition, the inhibition at 0.5 µM on PDE5A (read-out: Inhibition Ratio (%) 0.5 μM, PDE5, compound at 0.5 μM) came to 84%.
